Reference: ChEMBL document CHEMBL5705903, “A DNA Hypomethylation Signature Predicts Antitumor Activity of LSD1 Inhibitors in SCLC” (Cancer Cell, 2015)
Activity calls are given as the source filed them. The rule behind the calls is not given here.

Legend:
[1] = Dose normalized AUC (0 to infinity) in mouse at 5.5 mg/kg, ip by HPLC/MS/MS analysis; assay type: ADME, organism-based; conditions: in vivo
[2] = Cmax in mouse at 5.5 mg/kg, ip by HPLC/MS/MS analysis; assay type: ADME, organism-based; conditions: in vivo
[3] = test system: NCI-H526; test: In vivo inhibition of LSD1 in human NCI-H526 cells xenografted in nude mouse assessed as change in ODZ2 gene expression measured after 24 hrs post single administration by qRT-PCR analysis; assay type: functional, organism-based; conditions: dose 0.06-135 mg/kg
[4] = Effect on cleaved PARP level in human COLO-668 cells assessed as fold change at 1000 nM measured after 7 days by Western blot analysis (reference value: 1.00); assay type: functional; conditions: time 7 day
[5] = Effect on cleaved PARP level in human NCI-H889 cells assessed as relative expression at 1000 nM measured after 7 days by Western blot analysis (reference value: 0.34); assay type: functional; conditions: time 7 day
[6] = Toxicity in rat assessed as effect on hemodynamics measured for 28 days; conditions: in vivo, 672 h, time 28 day
[7] = Toxicity in dog assessed as multifocal hemorrhage in organs measured for 28 days; set-up: species or system Canis lupus familiaris; conditions: in vivo, 672 h, time 28 day
[8] = Effect on cleaved PARP level in human NCI-H146 cells assessed as relative expression at 1000 nM measured after 14 days by Western blot analysis (reference value: 2.42); assay type: functional; conditions: time 14 day
[9] = Effect on cleaved PARP level in human NCI-H69 cells assessed as relative expression at 1000 nM measured after 10 days by Western blot analysis (reference value: 0.03); assay type: functional; conditions: time 10 day
[10] = Effect on cleaved PARP level in human NCI-H2171 cells assessed as fold change at 10 nM measured after 14 days by Western blot analysis (reference value: 1.00); assay type: functional; conditions: time 14 day
[11] = test system: SHP77; test: Antitumor activity against human SHP77 cells xenografted in nude mouse assessed as mean tumor volume at […] mg/kg, po administered daily measured twice weekly (reference value: 2193 +/- 293 mm3); assay type: functional; conditions: 1.25 mg/kg
[12] = Effect on cleaved PARP level in human NCI-H510 cells assessed as relative expression at 100 nM measured after 7 days by Western blot analysis (reference value: 0.24); assay type: functional, NCI-H510A; conditions: time 7 day
[13] = Effect on cleaved PARP level in human NCI-H69 cells assessed as relative expression at 100 nM measured after 14 days by Western blot analysis (reference value: 0.03); assay type: functional; conditions: time 14 day
[14] = Tmax in mouse tumor at 5 mg/kg, po by HPLC/MS/MS analysis; assay type: ADME, organism-based, Neoplasm
[15] = Effect on cleaved PARP level in human NCI-H1694 cells assessed as relative expression at 1000 nM measured after 14 days by Western blot analysis (reference value: 0.25); assay type: functional; conditions: time 14 day
[16] = AUC (0 to last) in mouse tumor at 5 mg/kg, po by HPLC/MS/MS analysis; assay type: ADME, organism-based, Neoplasm
[17] = test system: NCI-H526; test: Effect on genomic redistribution of LSD1 to new sites in human NCI-H526 cells at 1 uM; assay type: functional, cell-based
[18] = Effect on cleaved PARP level in human COLO-668 cells assessed as relative expression at 10 nM measured after 7 days by Western blot analysis (reference value: […]); assay type: functional; conditions: time 7 day
[19] = Effect on cleaved PARP level in human NCI-H526 cells assessed as relative expression at 100 nM measured after 10 days by Western blot analysis (reference value: 0.81); assay type: functional; conditions: time 10 day
[20] = Effect on cleaved PARP level in human NCI-H2171 cells assessed as relative expression at 1000 nM measured after 10 days by Western blot analysis (reference value: 0.02); assay type: functional; conditions: time 10 day
[21] = Effect on cleaved PARP level in human NCI-H1694 cells assessed as fold change at 1000 nM measured after 10 days by Western blot analysis (reference value: 1.00); assay type: functional; conditions: time 10 day
[22] = Effect on cleaved PARP level in human NCI-H2171 cells assessed as relative expression at 10 nM measured after 14 days by Western blot analysis (reference value: 0.01); assay type: functional; conditions: time 14 day
[23] = Effect on cleaved PARP level in human NCI-H1694 cells assessed as fold change at 1000 nM measured after 14 days by Western blot analysis (reference value: 1.00); assay type: functional; conditions: time 14 day
[24] = Effect on cleaved PARP level in human NCI-H1694 cells assessed as fold change at 10 nM measured after 7 days by Western blot analysis (reference value: 1.00); assay type: functional; conditions: time 7 day
[25] = Effect on cleaved PARP level in human NCI-H510 cells assessed as relative expression at 1000 nM measured after 10 days by Western blot analysis (reference value: 0.02); assay type: functional, NCI-H510A; conditions: time 10 day
[26] = Effect on cleaved PARP level in human NCI-H2171 cells assessed as relative expression at 10 nM measured after 10 days by Western blot analysis (reference value: 0.02); assay type: functional; conditions: time 10 day
[27] = Toxicity in dog assessed as congestion in lymphoid organs measured for 28 days; set-up: species or system Canis lupus familiaris; conditions: in vivo, 672 h, time 28 day
[28] = Effect on cleaved PARP level in human NCI-H526 cells assessed as relative expression at 100 nM measured after 14 days by Western blot analysis (reference value: 0.66); assay type: functional; conditions: time 14 day
[29] = Effect on cleaved PARP level in human NCI-H1417 cells assessed as relative expression at 10 nM measured after 14 days by Western blot analysis (reference value: 0.38); assay type: functional; conditions: time 14 day
[30] = test system: NCI-H526; test: Effect on global H3K4me1 level in human NCI-H526 cells at 10 to 1000 nM measured after 24 hrs by Western blot analysis; assay type: functional, cell-based; conditions: dose 10-1000 nM
[31] = Effect on cleaved PARP level in human NCI-H510 cells assessed as relative expression at 100 nM measured after 14 days by Western blot analysis (reference value: 0.01); assay type: functional, NCI-H510A; conditions: time 14 day
[32] = Effect on cleaved PARP level in human NCI-H889 cells assessed as fold change at 1000 nM measured after 14 days by Western blot analysis (reference value: 1.00); assay type: functional; conditions: time 14 day
[33] = test system: NCI-H1417; test: Antitumor activity against human NCI-H1417 cells xenografted in nude mouse assessed as mean tumor volume at 1.5 mg/kg, po administered daily measured twice weekly (reference value: 2262 +/- 299 mm3); assay type: functional
[34] = Effect on cleaved PARP level in human NCI-H524 cells assessed as fold change at 10 nM measured after 14 days by Western blot analysis (reference value: 1.00); assay type: functional; conditions: time 14 day
[35] = Effect on cleaved PARP level in human NCI-H146 cells assessed as relative expression at 100 nM measured after 10 days by Western blot analysis (reference value: 0.27); assay type: functional; conditions: time 10 day
[36] = Dose normalized AUC (0 to last) in mouse tumor at 5 mg/kg, po by HPLC/MS/MS analysis; assay type: ADME, organism-based, Neoplasm; conditions: in vivo
[37] = Toxicity in dog assessed as morbidity measured for 28 days; set-up: species or system Canis lupus familiaris; conditions: in vivo, 672 h, time 28 day
[38] = Effect on cleaved PARP level in human COLO-668 cells assessed as relative expression at 10 nM measured after 10 days by Western blot analysis (reference value: 1.07); assay type: functional; conditions: time 10 day
[39] = Toxicity in dog assessed as myelofibrosis measured for 28 days; set-up: species or system Canis lupus familiaris; conditions: in vivo, 672 h, time 28 day

c1ccc([C@@H]2C[C@H]2NC2CCNCC2)cc1
AUC/dose [1]: 172 kg·ng·h/mL/mg | Cmax [2]: 466 ng/mL

O=C(O)c1ccc(CN2CCC(CN[C@@H]3C[C@H]3c3ccccc3)CC2)cc1 [GSK2879552]
inhibition [3]: Dose-Dependent Effect | fold change (FC) [4]: 0.95 | Activity [5]: 0.66 | Activity [6]: Toxic | Activity [7]: Toxic | Activity [8]: 1.45 | Activity [9]: 0.09 | fold change (FC) [10]: 0.9 | Activity [11]: 1845 mm3 | Activity [12]: 0.43 | Activity [13]: 0.16 | Tmax [14]: 30 min | Activity [15]: 0.21 | AUC(0-t) [16]: 2320 ng·h/mL | Activity [17]: inactive | Activity [18]: 1.07 | Activity [19]: 0.94 | Activity [20]: 0.02 | fold change (FC) [21]: 0.71 | Activity [22]: 0.01 | fold change (FC) [23]: 0.84 | fold change (FC) [24]: 1.22 | Activity [25]: 0.23 | Activity [26]: 0.02 | Activity [27]: Toxic | Activity [28]: 0.93 | Activity [29]: 0.31 | Activity [30]: inactive | Activity [31]: 0.52 | fold change (FC) [32]: 2.82 | Activity [33]: 546 mm3 | fold change (FC) [34]: 0.79 | Activity [35]: 0.25 | AUClast/dose [36]: 464 ng·h/mL/mg/kg | Activity [37]: Toxic | Activity [38]: 0.81 | Activity [39]: Toxic
